Test results taken from patent US10329302B2, “Bicyclic-fused heteroaryl or aryl compounds” (Pfizer Inc., priority 2014, dated 2019).

target: human IRAK4 kinase domain (aa 154-460) (Homo sapiens (Human), UniProt Q9NWZ3); test: IRAK4 Enzymatic DELFIA Assay, Protocol B; format: biochemical; conditions: not given
Source text: IRAK4 Enzymatic DELFIA Assay, Protocol B.

Sequence of human IRAK4 kinase domain (aa 154-460) (Q9NWZ3 154-460): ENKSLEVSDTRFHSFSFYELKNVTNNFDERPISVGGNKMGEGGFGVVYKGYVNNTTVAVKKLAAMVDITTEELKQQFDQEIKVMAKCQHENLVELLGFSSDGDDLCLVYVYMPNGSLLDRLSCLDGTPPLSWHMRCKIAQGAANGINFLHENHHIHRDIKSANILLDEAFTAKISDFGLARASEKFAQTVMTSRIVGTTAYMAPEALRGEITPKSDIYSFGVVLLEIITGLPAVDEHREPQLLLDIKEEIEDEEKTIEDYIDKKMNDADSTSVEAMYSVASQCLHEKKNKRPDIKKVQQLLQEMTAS

Structure (SMILES) | IC50 [nM]
CC(C)Oc1cc2c(OC3CC4CCC3C4)ccnc2cc1C(N)=O (centres unmarked) [Example 16, 4-(bicyclo[2.2.1]hept-2-yloxy)-6-(propan-2-yloxy)quinoline-7-carboxamide] | 386

same assay, conditions: human IRAK4 kinase domain (aa 154-460), 0.6 mM ATP (KM); read-out: IRAK4 DELFIA Protocol B IC50

Structure (SMILES) | IC50 [nM]
CC(C)Oc1cc2c(OC[C@H]3CN(C(=O)CC#N)C[C@@H]3C)nccc2cc1C(N)=O [Example 85, 1-{[(3R,4R)-1-(cyanoacetyl)-4-methylpyrrolidin-3-yl]methoxy}-7-(propan-2-yloxy)isoquinoline-6-carboxamide] | 610
CC(C)Oc1cc2c(O[C@H]3C[C@@H]4C[C@H]3CN4)nccc2cc1C(N)=O [Example 101, 1-[(1S,4S,5S)-2-azabicyclo[2.2.1]hept-5-yloxy]-7-(propan-2-yloxy)isoquinoline-6-carboxamide] | 1180
CC(C)Oc1cc2c(OC[C@H]3CCCNC3)ccnc2cc1C(N)=O [Example 2, 4-[(3S)-piperidin-3-ylmethoxy]-6-(propan-2-yloxy)quinoline-7-carboxamide] | 4500
CC(C)Oc1cc2c(OCC3CCCC3)ccnc2cc1C(N)=O [Example 7, 4-(cyclopentylmethoxy)-6-(propan-2-yloxy)quinoline-7-carboxamide] | 170
CC(C)Oc1cc2c(OC[C@@H]3CCCNC3)ccnc2cc1C(N)=O [Example 3, 4-[(3R)-piperidin-3-ylmethoxy]-6-(propan-2-yloxy)quinoline-7-carboxamide] | 2240
CC(C)Oc1cc2c(OCC3CNCCO3)nccc2cc1C(N)=O (centres unmarked) [Example 39, 1-(morpholin-2-ylmethoxy)-7-(propan-2-yloxy)isoquinoline-6-carboxamide] | 386
CC(C)Oc1cc2c(OC[C@]34CNC(=O)[C@H]3C4)nccc2cc1C(N)=O [Example 175, 1-{[(1S,5S)-4-oxo-3-azabicyclo[3.1.0]hex-1-yl]methoxy}-7-(propan-2-yloxy)isoquinoline-6-carboxamide] | 101
CC(C)Oc1cc2c(OC[C@H]3CNC(=O)O3)ccnc2cc1C(N)=O [Example 57, 4-{[(5R)-2-oxo-1,3-oxazolidin-5-yl]methoxy}-6-(propan-2-yloxy)quinoline-7-carboxamide] | 5.8
CC(C)Oc1cc2c(OC[C@H]3CNC[C@@H]3C(F)(F)F)nccc2cc1C(N)=O [Example 46, 7-(propan-2-yloxy)-1-{[(3R,4R)-4-(trifluoromethyl)pyrrolidin-3-yl]methoxy}isoquinoline-6-carboxamide] | 237
CC(C)Oc1cc2c(O[C@@H]3C[C@H]4C[C@@H]3CN4)nccc2cc1C(N)=O [Example 02, 1-[(1R,4R,5R)-2-azabicyclo[2.2.1]hept-5-yloxy]-7-(propan-2-yloxy)isoquinoline-6-carboxamide] | 217
CC(C)Oc1cc2c(O[C@@H]3C[C@@H]4CN[C@H]3C4)nccc2cc1C(N)=O [Example 108, 1-[(1S,4R,6R)-2-azabicyclo[2.2.1]hept-6-yloxy]-7-(propan-2-yloxy)isoquinoline-6-carboxamide] | 1870
CC(C)Oc1cc2c(OC[C@@H]3CCNC3)nccc2cc1C(N)=O [Example 117, 7-(propan-2-yloxy)-1-[(3R)-pyrrolidin-3-ylmethoxy]isoquinoline-6-carboxamide] | 136
CC(C)Oc1cc2c(O[C@@H]3C[C@H]4C[C@@H]3CN(C(=O)CC#N)C4)nccc2cc1C(N)=O [Example 68, 1-{[(1R,5R,6R)-3-(cyanoacetyl)-3-azabicyclo[3.2.1]oct-6-yl]oxy}-7-(propan-2-yloxy)isoquinoline-6-carboxamide] | 320
CC(C)Oc1cc2c(OC[C@@H]3CCCN3C(=O)CC#N)nccc2cc1C(N)=O [Example 63, 1-{[(2S)-1-(cyanoacetyl)pyrrolidin-2-yl]methoxy}-7-(propan-2-yloxy)isoquinoline-6-carboxamide] | 252
CC(C)Oc1cc2c(O[C@@H]3C[C@H]4C[C@@H]3CN(C(=O)CC#N)C4)ccnc2cc1C(N)=O [Example 89, 4-{[(1R,5R,6R)-3-(cyanoacetyl)-3-azabicyclo[3.2.1]oct-6-yl]oxy}-6-(propan-2-yloxy)quinoline-7-carboxamide] | 395
CC(C)Oc1cc2c(OCC3(C)CCCNC3)ccnc2cc1C(N)=O (centres unmarked) [Example 58, 4-[(3-methylpiperidin-3-yl)methoxy]-6-(propan-2-yloxy)quinoline-7-carboxamide] | 144
CC(C)Oc1cc2c(OC[C@@]34C[C@@H]3CN(C(=O)CC#N)C4)ccnc2cc1C(N)=O [Example 90, 4-{[(1S,5S)-3-(cyanoacetyl)-3-azabicyclo[3.1.0]hex-1-yl]methoxy}-6-(propan-2-yloxy)quinoline-7-carboxamide] | 438
CC(C)Oc1cc2c(OC[C@@H]3CC(C)C(=O)N3)nccc2cc1C(N)=O (stereo partly drawn) [Example 107, 1-{[(2S)-4-methyl-5-oxopyrrolidin-2-yl]methoxy}-7-(propan-2-yloxy)isoquinoline-6-carboxamide] | 16
CC(C)Oc1cc2c(O[C@@H]3CC[C@H]4CC(=O)N[C@H]43)nccc2cc1C(N)=O [Example 130, 1-{[(3aS,6R,6aR)-2-oxooctahydrocyclopenta[b]pyrrol-6-yl]oxy}-7-(propan-2-yloxy)isoquinoline-6-carboxamide] | 417
CC(C)Oc1cc2c(OC[C@@H]3CCCN3C)nccc2cc1C(N)=O [Example 31, 1-{[(2S)-1-methylpyrrolidin-2-yl]methoxy}-7-(propan-2-yloxy)isoquinoline-6-carboxamide] | 2620
CC(C)Oc1cc2c(OCC3CCCCN3C(=O)CC#N)ccnc2cc1C(N)=O (centres unmarked) [Example 99, 4-{[1-(cyanoacetyl)piperidin-2-yl]methoxy}-6-(propan-2-yloxy)quinoline-7-carboxamide] | 524
CC(C)Oc1cc2c(OC(C)C3CCC3)ccnc2cc1C(N)=O (centres unmarked) [Example 8, 4-(1-cyclobutylethoxy)-6-(propan-2-yloxy)quinoline-7-carboxamide] | 834
CC(C)Oc1cc2c(OC[C@H]3CCCO3)nccc2cc1C(N)=O [Example 30, 7-(propan-2-yloxy)-1-[(2R)-tetrahydrofuran-2-ylmethoxy]isoquinoline-6-carboxamide] | 2440
CC(C)Oc1cc2c(OC[C@@H]3CCN(C(=O)CC#N)C3)nccc2cc1C(N)=O [Example 70, 1-{[(3R)-1-(cyanoacetyl)pyrrolidin-3-yl]methoxy}-7-(propan-2-yloxy)isoquinoline-6-carboxamide] | 423
CC(C)Oc1cc2c(OC[C@@H]3CN(C(=O)CC#N)CCO3)nccc2cc1C(N)=O [Example 75, 1-{[(2S)-4-(cyanoacetyl)morpholin-2-yl]methoxy}-7-(propan-2-yloxy)isoquinoline-6-carboxamide] | 4040
CC(C)Oc1cc2c(OC[C@H]3CCCN3)nccc2cc1C(N)=O [Example 41, 7-(propan-2-yloxy)-1-[(2R)-pyrrolidin-2-ylmethoxy]isoquinoline-6-carboxamide] | 2350
CC(C)Oc1cc2c(OC[C@@H]3COCCN3C(=O)CC#N)nccc2cc1C(N)=O [Example 83, 1-{[(3S)-4-(cyanoacetyl)morpholin-3-yl]methoxy}-7-(propan-2-yloxy)isoquinoline-6-carboxamide] | 175
CC(C)Oc1cc2c(OC[C@@]34C[C@@H]3CN(C(=O)CC#N)C4)ccnc2cc1C(N)=O [Example 94, 4-{[(1S,5S)-3-(cyanoacetyl)-3-azabicyclo[3.1.0]hex-1-yl]methoxy}-6-(propan-2-yloxy)quinoline-7-carboxamide] | 526
